{
  "source": "patent US11052063B2",
  "about": "“Methods of reducing RLP-C” (Amarin Pharmaceuticals Ireland Limited, priority 2014, dated 2021)",
  "system": "Serum RLP-C",
  "assay": "12-week placebo-controlled study (MARINE), serum RLP-C by immunoseparation assay, patients with fasting TG ≥500 mg/dL",
  "format": "in vivo, human",
  "conditions": "for Median Change from Baseline in RLP-C vs. Placebo: Hodges-Lehmann estimate; for Median Change from Baseline in RLP-C vs. Placebo / RLP-C Concentration End of Treatment: week 12; for RLP-C Concentration Change: median change from baseline to week 12; for RLP-C Concentration Baseline / RLP-C Concentration End of Treatment: median; for RLP-C Concentration Baseline: before treatment",
  "procedure": "A multi-center, placebo-controlled randomized, double-blind, 12-week study with an open-label extension was performed to evaluate the efficacy and safety of AMR101 in patients with fasting triglyceride levels≥500 mg/dL. The primary objective of the study was to determine the efficacy of >96%, by weight of all fatty acids present, ethyl-EPA (“AMR101”) 2 g daily and 4 g daily, compared to placebo, in lowering fasting TG levels in patients with fasting TG levels≥500 mg/dL and ≤1500 mg/dL (≥5.65 mmol/L and ≤16.94 mmol/L). The population for this study was men and women (women of childbearing potential needed to be on contraception or practice abstinence) >18 years of age with a body mass index≤45 kg/m^2 who were not on lipid-altering therapy or were not currently on lipid-altering therapy. Patients currently on statin therapy (with or without ezetimibe) were evaluated by the investigator as to whether this therapy could be safely discontinued at screening, or if it should have been continued. If statin therapy (with or without ezetimibe) was to be continued, dose(s) must have been stable for ≥4 weeks prior to randomization. Patients taking non-statin, lipid-altering medications (niacin>200 mg/day, fibrates, fish oil, other products containing omega-3 fatty acids, or other herbal products or dietary supplements with potential lipid-altering effects), either alone or in combination with statin therapy (with or without ezetimibe), must have been able to safely discontinue non-statin, lipid-altering therapy at screening. Approximately 240 patients were randomized at approximately 50 centers in North America, South America, Central America, Europe, India, and South Africa. The study was a 58- to 60-week, Phase 3, multi-center study consisting of 3 study periods: (1) a 6- to 8-week screening period that included a diet and lifestyle stabilization and washout period and a TG qualifying period; (2) a 12-week, double-blind, randomized, placebo-controlled treatment period; and (3) a 40-week, open-label, extension period. After confirmation of qualifying fasting TG values, eligible patients entered a 12-week, randomized, double-blind treatment period. At Visit 4 (Week 0), patients were randomly assigned to one of the following treatment groups: • AMR101 2 g daily, • AMR101 4 g daily, or • Placebo. Eligible patients were randomly assigned at Visit 4 (Week 0) to orally receive AMR101 2 g daily, AMR101 4 g daily, or placebo for the 12-week double-blind treatment period. AMR101 was provided in 1 g liquid-filled, oblong, gelatin capsules. The matching placebo capsule was filled with light liquid paraffin and contained 0 g of AMR101. During the double-blind treatment period, patients took 2 capsules (AMR101 or matching placebo) in the morning and 2 in the evening for a total of 4 capsules per day. Patients in the AMR101 2 g/day treatment group received 1 AMR101 1 g capsule and 1 matching placebo capsule in the morning and in the evening. Patients in the AMR101 4 g/day treatment group received 2 AMR101 1 g capsules in the morning and evening. The primary efficacy variable for the double-blind treatment period was percent change in TG from baseline to Week 12 endpoint. […]",
  "key": {"[1]": {"conditions": "2 g/day, Baseline TG >750 mg/dl"}, "[2]": {"conditions": "2 g/day, Baseline TG ≤750 mg/dl"}, "[3]": {"conditions": "4 g/day, Baseline TG >750 mg/dl"}, "[4]": {"conditions": "4 g/day, Baseline TG ≤750 mg/dl"}},
  "data": [
    {"compound": "CC/C=C\\C/C=C\\C/C=C\\C/C=C\\C/C=C\\CCCC(=O)OCC", "note": "[AMR101, ethyl-EPA]", "values": [
      {"measurement": "RLP-C compared to placebo", "setting": "2 g/day treatment group, 12 weeks", "value": "reduced RLP-C compared to placebo"},
      {"measurement": "Median Change from Baseline in RLP-C vs. Placebo", "setting": "[1]", "value": "−25.4", "unit": "%"},
      {"measurement": "RLP-C Concentration Change", "setting": "[1]", "value": "−10.7", "unit": "%"},
      {"measurement": "RLP-C Concentration Baseline", "setting": "[1]", "value": 66.0, "unit": "mg/dL"},
      {"measurement": "RLP-C Concentration End of Treatment", "setting": "[1]", "value": 65.0, "unit": "mg/dL"},
      {"measurement": "Median Change from Baseline in RLP-C vs. Placebo", "setting": "[2]", "value": "−7.3", "unit": "%"},
      {"measurement": "RLP-C Concentration Change", "setting": "[2]", "value": 18.2, "unit": "%"},
      {"measurement": "RLP-C Concentration Baseline", "setting": "[2]", "value": 27.5, "unit": "mg/dL"},
      {"measurement": "RLP-C Concentration End of Treatment", "setting": "[2]", "value": 32.5, "unit": "mg/dL"},
      {"measurement": "Median Change from Baseline in RLP-C vs. Placebo", "setting": "2 g/day, ITT", "value": "−14.9", "unit": "%"},
      {"measurement": "RLP-C Concentration Change", "setting": "2 g/day, ITT", "value": 5.8, "unit": "%"},
      {"measurement": "RLP-C Concentration Baseline", "setting": "2 g/day, ITT", "value": 43.0, "unit": "mg/dL"},
      {"measurement": "RLP-C Concentration End of Treatment", "setting": "2 g/day, ITT", "value": 44.5, "unit": "mg/dL"},
      {"measurement": "Median Change from Baseline in RLP-C vs. Placebo", "setting": "2 g/day, No Statin Use", "value": "−8.5", "unit": "%"},
      {"measurement": "RLP-C Concentration Change", "setting": "2 g/day, No Statin Use", "value": 3.0, "unit": "%"},
      {"measurement": "RLP-C Concentration Baseline", "setting": "2 g/day, No Statin Use", "value": 45.0, "unit": "mg/dL"},
      {"measurement": "RLP-C Concentration End of Treatment", "setting": "2 g/day, No Statin Use", "value": 44.5, "unit": "mg/dL"},
      {"measurement": "Median Change from Baseline in RLP-C vs. Placebo", "setting": "2 g/day, With Statin Use", "value": "−41.6", "unit": "%"},
      {"measurement": "RLP-C Concentration Change", "setting": "2 g/day, With Statin Use", "value": 29.2, "unit": "%"},
      {"measurement": "RLP-C Concentration Baseline", "setting": "2 g/day, With Statin Use", "value": 31.5, "unit": "mg/dL"},
      {"measurement": "RLP-C Concentration End of Treatment", "setting": "2 g/day, With Statin Use", "value": 46.5, "unit": "mg/dL"},
      {"measurement": "median placebo-adjusted reductions in RLP-C", "setting": "4 g/day treatment group, 12 weeks, p=0.0041, stated as reduction", "value": 29.8, "unit": "%"},
      {"measurement": "reductions in RLP-C compared to baseline", "setting": "4 g/day treatment group, 12 weeks, stated as reduction", "value": 16.1, "unit": "%"},
      {"measurement": "Median Change from Baseline in RLP-C vs. Placebo", "setting": "[3]", "value": "−37.5", "unit": "%"},
      {"measurement": "RLP-C Concentration Change", "setting": "[3]", "value": "−25.4", "unit": "%"},
      {"measurement": "RLP-C Concentration Baseline", "setting": "[3]", "value": 89.5, "unit": "mg/dL"},
      {"measurement": "RLP-C Concentration End of Treatment", "setting": "[3]", "value": 68.5, "unit": "mg/dL"},
      {"measurement": "Median Change from Baseline in RLP-C vs. Placebo", "setting": "[4]", "value": "−26.1", "unit": "%"},
      {"measurement": "RLP-C Concentration Change", "setting": "[4]", "value": "−8.8", "unit": "%"},
      {"measurement": "RLP-C Concentration Baseline", "setting": "[4]", "value": 34.0, "unit": "mg/dL"},
      {"measurement": "RLP-C Concentration End of Treatment", "setting": "[4]", "value": 29.0, "unit": "mg/dL"},
      {"measurement": "Median Change from Baseline in RLP-C vs. Placebo", "setting": "4 g/day, ITT", "value": "−29.8", "unit": "%"},
      {"measurement": "RLP-C Concentration Change", "setting": "4 g/day, ITT", "value": "−16.1", "unit": "%"},
      {"measurement": "RLP-C Concentration Baseline", "setting": "4 g/day, ITT", "value": 45.0, "unit": "mg/dL"},
      {"measurement": "RLP-C Concentration End of Treatment", "setting": "4 g/day, ITT", "value": 38.0, "unit": "mg/dL"},
      {"measurement": "Median Change from Baseline in RLP-C vs. Placebo", "setting": "4 g/day, No Statin Use", "value": "−21.4", "unit": "%"},
      {"measurement": "RLP-C Concentration Change", "setting": "4 g/day, No Statin Use", "value": "−16.6", "unit": "%"},
      {"measurement": "RLP-C Concentration Baseline", "setting": "4 g/day, No Statin Use", "value": 45.0, "unit": "mg/dL"},
      {"measurement": "RLP-C Concentration End of Treatment", "setting": "4 g/day, No Statin Use", "value": 39.5, "unit": "mg/dL"},
      {"measurement": "Median Change from Baseline in RLP-C vs. Placebo", "setting": "4 g/day, With Statin Use", "value": "−56.8", "unit": "%"},
      {"measurement": "RLP-C Concentration Change", "setting": "4 g/day, With Statin Use", "value": "−16.1", "unit": "%"},
      {"measurement": "RLP-C Concentration Baseline", "setting": "4 g/day, With Statin Use", "value": 37.0, "unit": "mg/dL"},
      {"measurement": "RLP-C Concentration End of Treatment", "setting": "4 g/day, With Statin Use", "value": 33.0, "unit": "mg/dL"}
    ]}
  ]
}
